The source of these data is patent US6743753B2, “Herbicidal compositions” (priority 1998, dated 2004).

What all share (assay type): in vivo
Conditions in all cases: 28 DAT

Assay [1] deals with Leptochloa chinensis (LEFCH). Nature of the assay: Post-emergence treatment of LEFCH, visual assessment of weed control. An excerpt:
(§1) Seed of various weed species were sown and grown up to a 2-4 leaves stage. The said weeds are Echinochloa crus-galli (hereafter ECGCH), Leptochloa chinensis (hereafter LEFCH), Monochoria vaginalis (hereafter MOOVA) and Cyperus difformis (hereafter CYPDI).
(§2) Mixtures of pyribenzoxim and a partner herbicide were applied post emergence in a water diluted form using a laboratory sprayer. A visual assessment was made 28 days after treatment (DAT).
(§3) In the tables that follow ‘dose’ represents the dose rate in grammes per hectare of the active ingredient used; the figures for the weed control are percentage reductions in growth when compared with untreated controls; and CpdA represents pyribenzoxim.

Assay [2] deals with Monochoria vaginalis (MOOVA). Put plainly: Post-emergence treatment of MOOVA, visual assessment of weed control.
Text: as §1, §2, §3

Assay [3] has as its system Cyperus difformis (CYPDI). Put plainly: Post-emergence treatment of CYPDI, visual assessment of weed control.
Text: as §1, §2, §3

Assay [4] deals with Echinochloa crus-galli (ECGCH). Nature of the assay: Post-emergence treatment of ECGCH, visual assessment of weed control.
Text: as §1, §2, §3

Consider `CC(Oc1ccc(Oc2nc3ccc(Cl)cc3o2)cc1)C(=O)O` (racemic) [fenoxaprop, [(±)-2-[4-(6-chloro-1,3-benzoxazol-2-yloxy)phenoxy]propionic acid], for which the “weed control, percentage reduction in growth vs untreated controls” value (shortened to “weed control, percentage reduction”) in assay [1] (Table 2, fenoxaprop 15 g/ha alone) was determined as 0%; in assay [1] (Table 2, fenoxaprop 30 g/ha alone) it was 0%; in assay [1] (Table 2, fenoxaprop 60 g/ha alone), 0%; in assay [2] (Table 7, MOOVA (2 leaf), fenoxaprop 15 g/ha alone) it was 0%; in assay [2] (Table 7, MOOVA (2 leaf), fenoxaprop 30 g/ha alone), 0%; in assay [2] (Table 7, MOOVA (2 leaf), fenoxaprop 60 g/ha alone) it was 30%. Further, the “weed control, percentage reduction” value in assay [2] (Table 7, MOOVA (2 leaf), fenoxaprop 120 g/ha alone) stood at 70%; in assay [3] (Table 10, fenoxaprop 30 g/ha alone), 0%; in assay [3] (Table 10, fenoxaprop 60 g/ha alone) it was 0%.

On to `COc1cc(OC)nc(Oc2cccc(Oc3nc(OC)cc(OC)n3)c2C(=O)ON=C(c2ccccc2)c2ccccc2)n1` [CpdA, benzophenone O-{2,6-bis[(4,6-dimethoxypyrimidyl)oxy]benzoyl}oxime], for which the “weed control, percentage reduction” value worked out at 0% in assay [1] (Table 2, CpdA 15 g/ha alone); 30% in assay [1] (Table 2, CpdA 30 g/ha alone); 30% in assay [1] (Table 2, CpdA 60 g/ha alone); 0% in assay [1] (Table 3, CpdA 15 g/ha alone); 30% in assay [1] (Table 3, CpdA 30 g/ha alone); 30% in assay [1] (Table 3, CpdA 60 g/ha alone). In addition, the “weed control, percentage reduction” value in assay [1] (Table 4, LEFCH (2 leaf), CpdA 15 g/ha alone) turned out to be 50%; in assay [1] (Table 5, LEFCH (2 leaf), CpdA 7.5 g/ha alone), 30%; in assay [1] (Table 5, LEFCH (2 leaf), CpdA 15 g/ha alone), 50%; in assay [1] (Table 6, LEFCH (2 leaf), CpdA 7.5 g/ha alone) it was 30%; in assay [1] (Table 6, LEFCH (2 leaf), CpdA 15 g/ha alone), 50%; in assay [2] (Table 7, MOOVA (2 leaf), CpdA 15 g/ha alone), 0%. The “weed control, percentage reduction” value in assay [2] (Table 7, MOOVA (2 leaf), CpdA 30 g/ha alone) was 70%; in assay [2] (Table 8, MOOVA (2 leaf), CpdA 15 g/ha alone) it was 100%; in assay [2] (Table 8, MOOVA (2 leaf), CpdA 30 g/ha alone) it was 100%; in assay [2] (Table 9, MOOVA (2 leaf), CpdA 7.5 g/ha alone) it was 100%; in assay [3] (Table 10, CpdA 15 g/ha alone), 60%; in assay [3] (Table 11, CpdA 7.5 g/ha alone) it was 0%. In addition, the “weed control, percentage reduction” value in assay [4] (CpdA 7.5 g/ha alone) worked out at 20%.

On to `COc1cc(OC)nc(NC(=O)NS(=O)(=O)Cc2ccccc2C(=O)O)n1` [bensulfuron, α-(4,6-dimethoxypyrimidin-2-ylcarbamoylsulfamoyl)-o-toluic acid], for which the “weed control, percentage reduction” value in assay [1] (Table 4, LEFCH (2 leaf), bensulfuron 25 g/ha alone) is on record as 0%; in assay [1] (Table 4, LEFCH (2 leaf), bensulfuron 50 g/ha alone), 0%; in assay [4] (bensulfuron 6.5 g/ha alone), 30%; in assay [4] (bensulfuron 13 g/ha alone), 50%; in assay [4] (bensulfuron 25 g/ha alone), 70%.

As to `CC(C)N1C(=O)c2ccccc2NS1(=O)=O` [bentazone, 3-isopropyl-1H-2,1,3-benzothiadiazin-4(3H)-one 2,2-dioxide], the “weed control, percentage reduction” value in assay [1] (Table 3, bentazone 375 g/ha alone) came to 0%; in assay [1] (Table 3, bentazone 750 g/ha alone) it was 20%; in assay [1] (Table 3, bentazone 1500 g/ha alone) it was 20%; in assay [3] (Table 11, bentazone 375 g/ha alone), 80%; in assay [3] (Table 11, bentazone 750 g/ha alone), 80%.

On to `Cc1ccc(C(=O)COc2c(C(=O)c3ccc(Cl)c(C)c3Cl)c(C)nn2C)cc1` [benzofenap, 2-[4-(2,4-dichloro-m-toluoyl)-1,3-dimethylpyrazol-5-yloxy]-4-′methylacetophenone], for which the “weed control, percentage reduction” value is 10% in assay [1] (Table 6, LEFCH (2 leaf), benzofenap 600 g/ha alone); 20% in assay [1] (Table 6, LEFCH (2 leaf), benzofenap 1200 g/ha alone); 0% in assay [2] (Table 9, MOOVA (2 leaf), benzofenap 150 g/ha alone); 0% in assay [2] (Table 9, MOOVA (2 leaf), benzofenap 300 g/ha alone).
